Laboratory results taken from patent US20230250433A1, “METHODS AND COMPOSITIONS FOR TREATMENT OF APC-DEFICIENT CANCER” (Board of Regents, The University of Texas System, priority 2020, published 2023).

Experiments:
[1] = system: APC-WT and APC-KO MC38 cells; assay: Cell viability assay with R428; assay type: cell-based, mouse; settings: R428 0.5 μM, 48 h
Text: (§1) The red box indicates Axl. […] Six replicates per group. two-tailed t-test. *P<0.05. […] Epithelial cells are stained with EpCam and indicated by GFP. X63 magnification. […] Total flux measurement of at the end point. **P<0.01. two-tailed t-test. […] Total flux measurement of tumors was done at the end point. **P<0.01. two-tailed t-test.
(§2) Gas6 is a ligand of Axl and is secreted mainly by tumor-associated macrophages in the TME (Loges et al., 2010), raising the possibility that macrophage-derived Gas6 might activate Axl to support the growth of APC-deficient cancer cells.

[2] = system: LS180 and HT-29 cell lines; assay: Colony formation assay with Gas6 and R428; assay type: cell-based, human; settings: Gas6 25 ng with R428 1 μM, 36 hr
Text: as §1, §2
Colorectal cancer cell proliferation in vitro was assayed through colony formation. 1×10^3 cells were seeded in each well of 6-well plates and cultured for 5-7 days. At the end point, cells were fixed and stained with 0.5% crystal violet in 25% methanol for 1 hr. These studies were performed in triplicate.

Axl = molecular target: T1, Axl (Mus musculus, UniProt Q00993); assay: Immunoblots for Axl and phospho-Axl; assay type: cell-based; settings: APC-WT and APC-KO MC38 cells; R428 0.2 μM 24 h; rmGAS6 24 h
T1 construct: immunoblots for Axl and phospho-Axl in APC-WT and APC-KO MC38 cells after R428 treatment (0.2 μM, 24 h); endogenous in cells; host or cells: MC38 mouse colorectal cancer cells, APC-WT and isogenic APC-KO
T1 sequence (Q00993 19-888): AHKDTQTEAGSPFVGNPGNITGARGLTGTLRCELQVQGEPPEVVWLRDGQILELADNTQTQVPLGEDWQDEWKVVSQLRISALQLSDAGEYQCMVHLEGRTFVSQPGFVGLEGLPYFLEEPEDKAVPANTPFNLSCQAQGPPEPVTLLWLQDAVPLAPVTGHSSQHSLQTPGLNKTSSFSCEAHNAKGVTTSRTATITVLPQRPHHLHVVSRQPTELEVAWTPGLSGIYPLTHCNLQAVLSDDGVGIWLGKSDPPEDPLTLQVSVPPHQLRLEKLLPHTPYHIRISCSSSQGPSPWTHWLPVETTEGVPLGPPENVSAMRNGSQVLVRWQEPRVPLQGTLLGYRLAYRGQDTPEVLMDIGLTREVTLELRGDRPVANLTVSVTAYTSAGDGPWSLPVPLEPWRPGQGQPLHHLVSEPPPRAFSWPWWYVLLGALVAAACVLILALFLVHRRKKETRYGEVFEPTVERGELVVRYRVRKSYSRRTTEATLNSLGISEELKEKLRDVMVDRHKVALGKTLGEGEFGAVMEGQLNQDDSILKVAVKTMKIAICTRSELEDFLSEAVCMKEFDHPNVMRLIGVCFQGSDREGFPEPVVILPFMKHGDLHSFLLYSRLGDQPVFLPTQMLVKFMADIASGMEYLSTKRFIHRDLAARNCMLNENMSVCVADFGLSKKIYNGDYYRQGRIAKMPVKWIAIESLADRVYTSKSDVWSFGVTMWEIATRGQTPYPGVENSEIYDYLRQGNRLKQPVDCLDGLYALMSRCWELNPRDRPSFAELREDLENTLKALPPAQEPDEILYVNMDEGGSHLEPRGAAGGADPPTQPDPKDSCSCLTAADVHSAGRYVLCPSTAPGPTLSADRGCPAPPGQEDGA
Text: as §1, §2
Cell lysates were prepared with RIPA lysis buffer (Roche) with protease inhibitor […] Immunoblotting was performed following standard protocol. Antibodies were purchased from the indicated companies.

BMDM [3] = assay: RT-qPCR analysis of Gas6 expression in BMDM; assay type: cell-based, mouse; settings: Kyn 1 mM, CXCL5 50 ng, Gas6 25 ng, 24 hr
Experimental: as §1
(§3) To evaluate whether secreted factors from cancer cells might upregulate Gas6 expression in macrophages, BMDMs were incubated with conditioned media from MC38 cell lines. […] (FIG. 15H). Finally, to validate the roles of Gas6 in promoting tumor growth in vivo, CT26 cell lines and two independent Raw 264.7 shGas6 cell lines were co-injected into syngeneic Balb/CJ mice (FIG. 15I).
(§4) RNA was isolated from cells using Trizol (Invitrogen) following the manufacturer's instructions. RNA (200-500 ng) was first treated with RNase-free DNase I using the DNA-free kit (Ambion) to remove all genomic DNA, and then reverse-transcribed into cDNA using an ABI High Capacity cDNA RT Kit (Invitrogen). The cDNA was analyzed using real-time quantitative PCR (SYBR Green, Invitrogen) with an Applied Biosystems 7900 Sequence Detection System. Each reaction was performed in triplicate. The expression of each gene was normalized by that of mouse Actin or human GAPDH.

Raw264.7 = assay: Transwell migration assay of macrophages in conditioned media; assay type: cell-based, mouse; settings: recombinant CXCL5 protein 50 ng, 36 hr
Experimental: Two-way ANOVA analysis. […] Dox food was applied at day 5 post-orthotopic injection to induce TDO2 knockdown in vivo. n=4 per group. n.s.P>0.05, *P<0.05, […], ****P<0.0001. two-tailed t-test. […] FIGS. 12D and 12E show quantification of macrophages (F4/80+; FIG. 12D) and M2 macrophages (CD206+; FIG. 12E) in tumors shown in FIG. 12C. CyTOF data analyzed by FlowJo. Data represent mean±s.d., n=3 per group. *P<0.05, **P<0.01. two-tailed t-test. […] Recombinant CXCL5 protein (50 ng) and SX-682 (1 μM) were added to harvested condition media for 36 hr. Scale bar, 100 μm. n=3 biological replicates. Quantification is shown in lower panel. n.s. P>0.05, ***P<0.001, ****P<0.0001. two-tailed t-test. […] Clondronate liposomes or control encapsome liposomes were given intraperitoneally (100 μl) at day 2 post-orthotopic injection and three times a week. […]
Macrophages (1×10^4 for Raw264.7 and BMDM) were suspended in serum-free culture medium and seeded into 24-well Transwell inserts ([…]). […] After 24 h, the migrated macrophages were fixed and stained with crystal violet (0.05%, sigma), and then counted as cells per field of view under microscope or measured as OD590 nm (expressed as migration index) after crystal violet was dissolved.

Raw264.7 cells = assay: RT-qPCR of M2 macrophage signature genes in Raw264.7 cells with conditioned media; assay type: cell-based, mouse; settings: conditioned media from APC-KO MC38 cells, 30 h
Experimental: (§5) Scale bars, 50μm. […] Scale bars, 100 μm. […] (isTDO2 and isTDO2/shCXCL5 #2 groups, n=7, isTDO2/shCXCL5 #3, n=8). ****P<0.0001. two-tailed t-test. […] (shControl and shCXCL5 #2 groups, n=7, shCXCL5 #3, n=8). ****P<0.0001. two-tailed t-test.
as §4

CT26 = assay: Orthotopic co-injection of CT26 cells and Raw264.7 macrophages, tumor growth; assay type: in vivo, mouse; settings: Raw264.7 pre-treated with 100 ng of CXCL5 for 48 h before injection; BalB/CJ mice
Experimental: as §1, §3
Mice were grouped by 5 animals in large plastic cages and were maintained under pathogen-free conditions. All animal studies were performed with the approval of MD Anderson Cancer Center's Institutional Animal Care and Use Committee (IACUC). NSG (NOD.Cg-Prkdc^scid Il2rg^tm1Wjl/SzJ), C57BL/J6J, and BALB/cJ mice were purchased from Jackson laboratory (Stock No: 005557, 000664, 000651). Colorectal orthotopic xenograft tumor models were established by following protocol (Tseng et al., 2007, JoVE).

BMDM [4] = assay: RT-qPCR of M2 macrophage signature genes in BMDM; assay type: cell-based, mouse; settings: CXCL5 50 ng, Kyn 1 mM, 24 hr
Experimental: as §5, §4

Nc1nc(Nc2ccc3c(c2)CCC(N2CCCC2)CC3)nn1-c1cc2c(nn1)-c1ccccc1CCC2 (centres unmarked) [R428]
sensitivity of APC-deficient vs APC-intact MC38 cells [1]: increased sensitivity | effect on Gas6-promoted cancer cell growth [2]: reversed by R428 treatment | Axl phosphorylation (Axl): reduce Axl phosphorylation

CXCL5: recombinant CXCL5 protein, cytokine
Gas6 expression (BMDM [3]): increased Gas6 expression | macrophage recruitment with CM from APC-KO TDO2 depleted MC38 cells (Raw264.7): rescue of macrophage recruitment | M2 macrophage markers decreased by TDO2 knockdown (Raw264.7 cells): rescued by CXCL5 supplementation | growth of CT26 tumors co-injected with pre-treated macrophages (CT26): promoted the growth of CT26 significantly | M2 macrophage markers (BMDM [4]): M2 macrophage markers increased
